Measurements from patent US10654834B2 (Venenum Biodesign, LLC, priority 2016, dated 2020).
pEC50: −log10 of the molar value.

Key:
human TGR5 receptor = molecular target: T1, human TGR5 receptor (Homo sapiens, UniProt Q8TDU6); test: Human TGR5 cAMP production assay (hTGR5-CHO cells, DiscoveRx cAMP XS+ kit); assay type: cell-based; details: luminescent cAMP assay, read-out: Human TGR5 Lum. cAMP Activity (EC50)
T1 construct: host or cells: CHO-K1 (hTGR5-CHO)
T1 sequence (Q8TDU6 1-330): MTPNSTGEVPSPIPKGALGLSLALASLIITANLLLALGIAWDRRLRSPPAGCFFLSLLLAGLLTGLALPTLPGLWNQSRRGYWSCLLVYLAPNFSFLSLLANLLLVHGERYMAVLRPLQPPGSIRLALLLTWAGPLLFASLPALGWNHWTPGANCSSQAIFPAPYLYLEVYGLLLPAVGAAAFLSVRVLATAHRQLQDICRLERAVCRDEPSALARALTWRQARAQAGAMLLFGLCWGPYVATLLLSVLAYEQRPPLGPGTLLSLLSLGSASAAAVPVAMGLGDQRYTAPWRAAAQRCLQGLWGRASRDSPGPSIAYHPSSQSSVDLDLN
In short: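 CHO-K1 cells stably expressing hTGR5, in PBS with IBMX and cAMP antibody, treated with half-log compound dilutions for 1 h at room temperature. cAMP measured by enzyme-fragment complementation luminescence after overnight detection; EC50 values reported.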

mouse TGR5 receptor = molecular target: T2, mouse TGR5 receptor (Mus musculus, UniProt Q80SS6); test: Mouse TGR5 luminescent cAMP production assay (HEK293-EBNA cells, DiscoveRx cAMP XS+ kit); assay type: cell-based; details: HEK293-EBNA cells overexpressing mouse TGR5, luminescent cAMP assay; read-out: Mouse TGR5 Lum. cAMP Activity (EC50)
T2 construct: host or cells: HEK293-EBNA (293 c18, ATCC CRL10852)
T2 sequence (Q80SS6 1-329): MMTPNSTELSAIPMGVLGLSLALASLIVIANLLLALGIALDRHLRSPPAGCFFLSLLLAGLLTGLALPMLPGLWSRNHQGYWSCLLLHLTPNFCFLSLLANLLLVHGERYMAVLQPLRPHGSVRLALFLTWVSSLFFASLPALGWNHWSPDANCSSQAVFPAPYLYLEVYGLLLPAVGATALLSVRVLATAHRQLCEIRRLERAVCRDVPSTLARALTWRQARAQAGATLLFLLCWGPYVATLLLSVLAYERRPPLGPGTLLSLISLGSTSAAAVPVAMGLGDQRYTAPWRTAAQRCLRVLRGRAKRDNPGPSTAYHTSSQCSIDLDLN
Description: Mouse TGR5 cAMP Production Assay
Compounds of the present invention were evaluated for their ability to induce cAMP production in HEK-EBNA cells overexpressing the mouse TGR5 receptor. Human embryonic kidney cells (HEK293-EBNA) stably expressing mouse TGR5 receptor were established using the following procedure. Specifically, a commercially obtained gene encoding mouse TGR5 (accession number BC116914) from Thermo Scientific (Waltham, Mass.) was cloned into an episomal expression vector. The resulting expression plasmid was then transfected into 293 c18 (ATCC® CRL10852™) cells, which express the Epstein-Barr virus nuclear antigen EBNA1 and can support the replication of episomal vectors. Selection for the plasmid was maintained with Hygromycin B. Cells were cultured and maintained in DMEM (Sigma; cat #6429) supplemented with 10% Fetal Bovine Serum, 1% penicillin/streptomycin, 2 mM L-alanine L-glutamine (GlutaMax), and 250 μg/mL Hygromycin.
We developed two cAMP production assays.
(i) Luminescent cAMP Production Assay
In this first cAMP production assay, the cAMP production was measured using DiscoveRx's cAMP XS+ kit following the manufacturer's recommended protocol. Briefly, HEK293-EBNA cells stably overexpressing mouse TGR5 were harvested using non-enzymatic cell dissociation buffer (Sigma-Aldrich, St. Louis, Mo.), spun down, then resuspended in serum-free DMEM with 500 μM IBMX at a density of 1.25×10^6 cells/mL. 500 μL of cAMP antibody solution was added to 500 μL of cell suspension and incubated at room temperature for 20 min.
Test compounds were serially diluted (half-log dilutions) in DMSO and then further diluted 1:50 in PBS, 10 mM HEPES buffer. 2 μL of serially diluted compound was added to a 384-well low volume plate (Greiner cat #784075) and centrifuged briefly. 2 μl of the cell/cAMP antibody mixture was then added to each compound-containing well and allowed to incubate at room temperature for one (1) hour. Following incubation, the XS+ kits' ED/Lysis/CL Substrate Working Solution was prepared following the manufacturer's recommended protocol and 4 μL was added to each well of the plate. The plate was then incubated for one (1) hour at room temperature. Following incubation, 4 μL of (Enzyme Acceptor) EA reagent was added to the plate and allowed to incubate overnight at room temperature. Luminescent signal was then detected using the Viewlux instrument (PerkinElmer, Waltham, Mass.).
In Table 52, EC50 values for both human and mouse cells were determined according to the TGR5 cAMP assays described above. […]

| pEC50 (human TGR5 receptor) | pEC50 (mouse TGR5 receptor) | Compound |
| --- | --- | --- |
| 4.52 to 6.00 | > 7.00 | COc1cc(-c2cc(N3CCC[C@H]3C(=O)NCCc3ccc(C#N)cc3)nc(C(F)(F)F)n2)c(Cl)cn1 [Compound 161, (S)-1-(6-(5-chloro-2-methoxy-pyridin-4-yl)-2-(trifluoromethyl)pyrimidin-4-yl)-N-(4-cyanophenethyl)pyrrolidine-2-carboxamide] |
| 4.52 to 6.00 | 6.00 to 7.00 | N#Cc1ccc(CCNC(=O)[C@@H]2CCCN2c2cc(-c3ccco3)nc(C(F)(F)F)n2)cc1 [Compound 167, (S)-N-(4-cyanophenethyl)-1-(6-(furan-2-yl)-2-(trifluoromethyl)pyrimidin-4-yl)pyrrolidine-2-carboxamide] |
| 6.00 to 7.00 | > 7.00 | CC(=O)N(C)CC1CCN(c2cc(N3CCC[C@H]3C(=O)NCCc3ccc(C#N)cc3)nc(C(F)(F)F)n2)CC1 [Compound 54, (S)-N-(4-cyanophenethyl)-1-(6-(4-((N-methylacetamido)methyl)piperidin-1-yl)-2-(trifluoromethyl)pyrimidin-4-yl)pyrrolidine-2-carboxamide] |
| 4.52 to 6.00 | 6.00 to 7.00 | N#Cc1ccc(CCNC(=O)[C@@H]2CCCN2c2cc(-c3ccc(S(=O)(=O)N4CCOCC4)cc3)nc(C(F)(F)F)n2)cc1 [Compound 154, (S)-N-(4-cyanophenethyl)-1-(6-(4-(morpholinosulfonyl)phenyl)-2-(trifluoromethyl)pyrimidin-4-yl)pyrrolidine-2-carboxamide] |
| 6.00 to 7.00 | 6.00 to 7.00 | N#Cc1ccc(CCNC(=O)[C@@H]2CCN2c2cc(-c3ccc(CO)cc3)nc(C(F)(F)F)n2)cc1 [Compound 304, (S)-N-(4-cyanophenethyl)-1-(6-(4-(hydroxymethyl)phenyl)-2-(trifluoromethyl)pyrimidin-4-yl)azetidine-2-carboxamide] |
| 6.00 to 7.00 | > 7.00 | CC(C)(C)OC(=O)N1CCC(Oc2cc(N3CCC[C@H]3C(=O)NCCc3ccc(C#N)cc3)nc(C(F)(F)F)n2)CC1 [Compound 45, (S)-tert-butyl 4-((6-(2-((4-cyanophenethyl)carbamoyl)pyrrolidin-1-yl)-2-(trifluoromethyl)pyrimidin-4-yl)oxy)piperidine-1-carboxylate] |
| 6.00 to 7.00 | 6.00 to 7.00 | Nc1cc(N2CCC[C@@H](C(=O)NCCc3ccc(C(F)(F)F)cc3)C2)nc(C(F)(F)F)n1 [Compound 320, (R)-1-(6-amino-2-(trifluoromethyl)pyrimidin-4-yl)-N-(4-(trifluoromethyl)phenethyl)piperidine-3-carboxamide] |
| 6.00 to 7.00 | 6.00 to 7.00 | O=C(NCCc1ccc(C(F)(F)F)cc1)[C@@H]1CCCN(c2cc(OC3CCOCC3)nc(C(F)(F)F)n2)C1 [Compound 335, (R)-1-(6-((tetrahydro-2H-pyran-4-yl)oxy)-2-(trifluoromethyl)pyrimidin-4-yl)-N-(4-(trifluoromethyl)-phenethyl)piperidine-3-carboxamide] |
| 6.00 to 7.00 | 6.00 to 7.00 | CCOc1ccc(-c2cc(N3CCC[C@H]3C(=O)NCCc3ccc(C#N)cc3)nc(C(F)(F)F)n2)cc1 [Compound 151, (S)-N-(4-cyanophenethyl)-1-(6-(4-ethoxyphenyl)-2-(trifluoromethyl)pyrimidin-4-yl)pyrrolidine-2-carboxamide] |
| 6.00 to 7.00 | > 7.00 | N#Cc1ccc(CCNC(=O)C2CCN2c2cc(-c3ccncc3)nc(C(F)(F)F)n2)cc1 (centres unmarked) [Compound 307, N-(4-cyanophenethyl)-1-(6-(pyridin-4-yl)-2-(trifluoromethyl)pyrimidin-4-yl)azetidine-2-carboxamide] |
| > 7.00 | > 7.00 | N#Cc1ccc(CCNC(=O)C2CCN2c2cc(N3CCC(CO)CC3)nc(C(F)(F)F)n2)cc1 (centres unmarked) [Compound 241, N-(4-cyanophenethyl)-1-(6-(4-(hydroxymethyl)piperidin-1-yl)-2-(trifluoromethyl)pyrimidin-4-yl)azetidine-2-carboxamide] |
| 6.00 to 7.00 | > 7.00 | CC(C)(C)OC(=O)NC1CCN(c2cc(N3CCC[C@H]3C(=O)NCCc3ccc(C#N)cc3)nc(C(F)(F)F)n2)CC1 [Compound 16] |
| 6.00 to 7.00 | 6.00 to 7.00 | N#Cc1ccc(CCNC(=O)[C@@H]2CCCN2c2cc(-c3ccc(CN)cc3)nc(C(F)(F)F)n2)cc1 [Compound 185, (S)-1-(6-(4-(aminomethyl)phenyl)-2-(trifluoromethyl)pyrimidin-4-yl)-N-(4-cyanophenethyl)pyrrolidine-2-carboxamide] |
| 6.00 to 7.00 | 4.52 to 6.00 | O=C(NCCc1ccc(C(F)(F)F)cc1)[C@@H]1CCCN1c1cc(-c2ccccn2)nc(C(F)(F)F)n1 [Compound 163, (S)-1-(6-(pyridin-2-yl)-2-(trifluoromethyl)pyrimidin-4-yl)-N-(4-(trifluoromethyl)phenethyl)-pyrrolidine-2-carboxamide] |
| 6.00 to 7.00 | 6.00 to 7.00 | COc1ccc(-c2cc(N3CCC[C@H]3C(=O)NCCc3ccc(C#N)cc3)nc(C(F)(F)F)n2)cc1OC [Compound 149, (S)-N-(4-cyanophenethyl)-1-(6-(3,4-dimethoxyphenyl)-2-(trifluoromethyl)pyrimidin-4-yl)pyrrolidine-2-carboxamide] |
| 6.00 to 7.00 | > 7.00 | CN(C)CC1CCN(c2cc(N3CC[C@H]3C(=O)NCCc3ccc(C#N)cc3)nc(C(F)(F)F)n2)CC1 [Compound 221, (S)-N-(4-cyanophenethyl)-1-(6-(4-((dimethylamino)methyl)piperidin-1-yl)-2-(trifluoromethyl)pyrimidin-4-yl)azetidine-2-carboxamide] |
| > 7.00 | 6.00 to 7.00 | COCC1CCN(c2cc(N3CCC[C@H]3C(=O)NCCc3ccc(C(F)(F)F)cc3)nc(C(F)(F)F)n2)CC1 [Compound 8] |
| 6.00 to 7.00 | 6.00 to 7.00 | Cc1ccc(-c2cc(N3CCC[C@H]3C(=O)NCCc3ccc(C#N)cc3)nc(C(F)(F)F)n2)cc1 [Compound 143, (S)-N-(4-cyanophenethyl)-1-(6-(p-tolyl)-2-(trifluoromethyl)pyrimidin-4-yl)pyrrolidine-2-carboxamide] |
| 6.00 to 7.00 | 6.00 to 7.00 | N#Cc1ccc(CCNC(=O)[C@@H]2CCCN2c2cc(-c3ccc(C(F)(F)F)cc3)nc(C(F)(F)F)n2)cc1 [Compound 147, (S)-N-(4-cyanophenethyl)-1-(2-(trifluoromethyl)-6-(4-(trifluoromethyl)phenyl)pyrimidin-4-yl)pyrrolidine-2-carboxamide] |
| 6.00 to 7.00 | 6.00 to 7.00 | N#Cc1ccc(CCNC(=O)[C@@H]2CCCN2c2cc(-c3ccncc3)nc(C(F)(F)F)n2)cc1 [Compound 141, (S)-N-(4-cyanophenethyl)-1-(6-(pyridin-4-yl)-2-(trifluoromethyl)pyrimidin-4-yl)pyrrolidine-2-carboxamide] |
| > 7.00 | > 7.00 | N#Cc1ccc(CCNC(=O)[C@@H]2CCCN(c3cc(OC4CCOCC4)nc(C(F)(F)F)n3)C2)cc1 [Compound 334] |
| 6.00 to 7.00 | 6.00 to 7.00 | CC(C)(C)OC(=O)NCC1CCN(c2cc(N3CCC[C@H]3C(=O)NCCc3ccc(C#N)cc3)nc(C(F)(F)F)n2)CC1 [Compound 17] |
